Source: ChEMBL document CHEMBL5055672, “Design, Synthesis, Biological Evaluation, and Computational Studies of Novel Fluorinated Candidates as PI3K Inhibitors: Targeting Fluorophilic Binding Sites” (J Med Chem, 2021)

Tests used:
[1] = target: Phosphatidylinositol 4,5-bisphosphate 3-kinase catalytic subunit alpha isoform (Homo sapiens, UniProt P42336); assay: Inhibition of PI3Kalpha (unknown origin) using PIP2 as substrate preincubated for 10 mins followed by substrate addition and measured after 1 hr by ELISA
[2] = system: MCF7; assay: Induction of cell cycle arrest in human MCF7 cells assessed as accumulation of cells at G phase at IC50 concentration by Propidium iodide staining based flow cytometric analysis (reference value: 1.76%); format: functional
[3] = system: NCI-H460; assay: Cytotoxicity against human NCI-H460 cells assessed as growth inhibition at 10 uM after 48 hrs by sulforhodamine B assay; format: functional; conditions: read-out: GI
[4] = system: ACHN; assay: Cytotoxicity against human ACHN cells assessed as growth inhibition at 10 uM after 48 hrs by sulforhodamine B assay; format: functional; conditions: read-out: GI
[5] = system: MCF7; assay: Induction of apoptosis in human MCF7 cells assessed as early apoptotic cells at 13.30 uM after 48 hrs by annexin V-FITC/propidium iodide staining based flow cytometric analysis (reference value: 0.36%); format: functional; conditions: dose 13.3 µM
[6] = system: MCF7; assay: Induction of apoptosis in human MCF7 cells assessed as necrotic cells at 13.30 uM after 48 hrs by annexin V-FITC/propidium iodide staining based flow cytometric analysis (reference value: 1.26%); format: functional; conditions: dose 13.3 µM
[7] = system: MCF7; assay: Antiproliferative activity against human MCF7 cells assessed as inhibition of cell growth incubated for 48 hrs by MTT assay; format: functional, cell-based; conditions: MCF7, 48 h
[8] = system: MCF7; assay: Cytotoxicity against human MCF7 cells assessed as growth inhibition at 10 uM after 48 hrs by sulforhodamine B assay; format: functional; conditions: read-out: GI
[9] = system: MDA-MB-231; assay: Cytotoxicity against human MDA-MB-231 cells assessed as growth inhibition at 10 uM after 48 hrs by sulforhodamine B assay; format: functional; conditions: read-out: GI
[10] = system: SW-620; assay: Cytotoxicity against human SW-620 cells assessed as growth inhibition at 10 uM after 48 hrs by sulforhodamine B assay; format: functional; conditions: read-out: GI
[11] = system: MCF7; assay: Induction of cell cycle arrest in human MCF7 cells assessed as accumulation of cells at S phase at IC50 concentration by Propidium iodide staining based flow cytometric analysis (reference value: 27.61%); format: functional
[12] = system: UO-31; assay: Cytotoxicity against human UO-31 cells assessed as growth inhibition at 10 uM after 48 hrs by sulforhodamine B assay; format: functional; conditions: read-out: GI
[13] = system: MCF-10A; assay: Cytotoxicity against human MCF10A cells assessed as inhibition of cell growth incubated for 48 hrs by MTT assay; format: cell-based
[14] = system: SNB-75; assay: Cytotoxicity against human SNB-75 cells assessed as growth inhibition at 10 uM after 48 hrs by sulforhodamine B assay; format: functional; conditions: read-out: GI
[15] = system: CAKI-1; assay: Cytotoxicity against human CAKI-1 cells assessed as growth inhibition at 10 uM after 48 hrs by sulforhodamine B assay; format: functional; conditions: read-out: GI

Chain of Phosphatidylinositol 4,5-bisphosphate 3-kinase catalytic subunit alpha isoform (P42336 whole entry, canonical isoform): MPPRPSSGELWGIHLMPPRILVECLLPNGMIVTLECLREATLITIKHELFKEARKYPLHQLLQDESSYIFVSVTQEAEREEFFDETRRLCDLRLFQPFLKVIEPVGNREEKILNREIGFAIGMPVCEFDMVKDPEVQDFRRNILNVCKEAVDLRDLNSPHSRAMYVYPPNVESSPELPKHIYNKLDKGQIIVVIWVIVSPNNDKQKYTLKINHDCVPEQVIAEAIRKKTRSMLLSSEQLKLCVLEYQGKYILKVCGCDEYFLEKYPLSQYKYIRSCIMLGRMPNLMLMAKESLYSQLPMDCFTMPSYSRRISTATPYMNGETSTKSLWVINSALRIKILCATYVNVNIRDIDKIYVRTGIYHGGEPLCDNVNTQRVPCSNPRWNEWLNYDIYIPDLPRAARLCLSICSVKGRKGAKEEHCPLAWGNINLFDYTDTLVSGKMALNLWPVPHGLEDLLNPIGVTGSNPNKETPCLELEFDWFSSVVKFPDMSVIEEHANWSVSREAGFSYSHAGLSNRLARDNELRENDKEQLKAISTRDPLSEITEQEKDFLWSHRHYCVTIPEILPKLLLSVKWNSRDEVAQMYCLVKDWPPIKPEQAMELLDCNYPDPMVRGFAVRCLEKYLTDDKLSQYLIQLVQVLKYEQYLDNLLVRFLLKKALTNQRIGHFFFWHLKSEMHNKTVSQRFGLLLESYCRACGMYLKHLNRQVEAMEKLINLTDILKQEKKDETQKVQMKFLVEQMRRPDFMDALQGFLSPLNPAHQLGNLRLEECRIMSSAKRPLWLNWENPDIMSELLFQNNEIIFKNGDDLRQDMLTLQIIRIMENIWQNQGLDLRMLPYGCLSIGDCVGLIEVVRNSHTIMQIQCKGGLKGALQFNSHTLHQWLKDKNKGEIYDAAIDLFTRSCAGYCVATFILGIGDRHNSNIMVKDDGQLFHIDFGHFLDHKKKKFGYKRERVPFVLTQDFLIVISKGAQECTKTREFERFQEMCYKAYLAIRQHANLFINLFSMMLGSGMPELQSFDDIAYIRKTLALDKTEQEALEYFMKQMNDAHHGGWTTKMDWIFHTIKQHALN

COC(=O)/C=C1\S/C(=N\N=C\c2ccc(OCC(F)(F)F)cc2)N(c2ccccc2)C1=O
IC50 [1]: 77.5 µM
Activity [2]: 19.52%
inhibition of growth at 10 µM [3]: 14.2%
inhibition of growth at 10 µM [4]: 24%
Activity [5]: 2.71%
Activity [6]: 7.39%
IC50 [7]: 13.3 µM
inhibition of growth at 10 µM [8]: 33.2%
inhibition of growth at 10 µM [9]: 21.5%
inhibition of growth at 10 µM [10]: 12.4%
Activity [11]: 36.02%
inhibition of growth at 10 µM [12]: 24.8%
IC50 [13]: 24.2 µM
inhibition of growth at 10 µM [14]: 28.2%
inhibition of growth at 10 µM [15]: 26.6%
